Columns and labels:
[1] = biological target: T1, full length dynamin I (UniProt Q05193); experiment: Basal dynamin GTPase activity in the absence of PS liposomes or other template (ring stabilizer activity); type: biochemical, sheep; conditions: 0.2 μM dyn1, 7 μM compound, 10 μM Gsn-F-actin complexes, FIG. 18
T1 construct: rows headed: basal rate of GTP hydrolysis of dynamin
T1 sequence (Q05193 1-864): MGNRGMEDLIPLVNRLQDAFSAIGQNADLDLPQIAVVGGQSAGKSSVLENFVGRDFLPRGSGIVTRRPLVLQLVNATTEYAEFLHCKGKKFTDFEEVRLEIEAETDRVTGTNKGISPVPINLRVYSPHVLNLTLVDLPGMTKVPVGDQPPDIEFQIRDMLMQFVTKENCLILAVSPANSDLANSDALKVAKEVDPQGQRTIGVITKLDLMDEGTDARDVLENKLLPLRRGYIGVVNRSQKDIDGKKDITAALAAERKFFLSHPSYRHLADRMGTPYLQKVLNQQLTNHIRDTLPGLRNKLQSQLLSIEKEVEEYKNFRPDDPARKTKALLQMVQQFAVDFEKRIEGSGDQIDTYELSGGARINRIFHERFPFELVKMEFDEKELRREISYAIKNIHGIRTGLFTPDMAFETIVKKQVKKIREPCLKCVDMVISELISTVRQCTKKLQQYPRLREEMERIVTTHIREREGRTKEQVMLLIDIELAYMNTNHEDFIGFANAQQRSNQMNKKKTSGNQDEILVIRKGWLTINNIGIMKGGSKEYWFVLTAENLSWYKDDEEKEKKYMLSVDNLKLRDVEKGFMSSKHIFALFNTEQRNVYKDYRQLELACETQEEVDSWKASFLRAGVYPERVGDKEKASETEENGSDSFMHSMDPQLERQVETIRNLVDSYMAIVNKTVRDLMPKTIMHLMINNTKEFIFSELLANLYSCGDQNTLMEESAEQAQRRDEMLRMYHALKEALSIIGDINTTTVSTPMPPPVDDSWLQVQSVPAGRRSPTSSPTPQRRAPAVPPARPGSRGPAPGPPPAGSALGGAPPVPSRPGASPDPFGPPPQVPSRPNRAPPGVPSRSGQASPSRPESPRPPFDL

[2] = test system: cultured mouse podocytes; experiment: Actin cytoskeleton and focal adhesions in cultured podocytes (rhodamine-phalloidin, anti-paxillin); type: cell-based; conditions: 10 min after addition
Method: FIG. 19 is a photograph showing the effects of Bis-T-23 on the actin cytoskeleton in podocytes. Cells were stained using rhodamine-phalloidin for F-actin (left column) and anti-paxillin monoclonal antibody (centre column). The merged staining is shown on the right column.
To determine if the in vitro action of the dynamin ring stabilizers also occurs in cells, the effect of Bis-T-23 on the actin cytoskeleton in cultured mouse podocytes was tested (FIG. 19). […] Thus, the observed increase in stress fibers is unlikely due to inhibition of endocytosis.

[3] = biological target: native brain dynamin I (Ovis aries, UniProt A0ACI6NZN1); experiment: PS liposome-stimulated (helical) dynamin I GTPase activity, inhibition; type: biochemical, sheep; conditions: 5 μM, increasing dynamin concentrations, FIG. 1
Method: Each of the dyngo compounds was synthesized by a simple one-step condensation reaction coupling 3-hydroxy-2-naphthoic acid hydrazide with a variety of hydroxyl substituted benzaldehydes affording a focussed library as illustrated by Scheme 1 below (e.g., by mixing the reagents in ethanol (e.g., 10 ml) in a round bottomed flask, refluxing the mixture for 2 hours, allowing it to cool and removing the solvent in vacuo prior to recrystallizing the product from ethanol although other synthesis methods available).
Among the various classes of dynamin inhibitors are subsets of dynamin ring stabilizers.

[4] = test system: purified full length dynamin I; experiment: Electron microscopy of dynamin ring formation in the absence of a template; type: biochemical; conditions: 5.4 μM, 200 nM dynamin, no template, FIG. 9C
Method: Dynamin was then examined by electron microscopy. […] The rings are bona fide dynamin rings (B).
Next, the effect of a ring stabilizer Bis-T-23 on the formation of dynamin rings in the absence of a template like PS liposomes was examined. At high concentrations in vitro, dynamin is well known to self-assemble into rings that are detectable by EM (Hinshaw and Schmid, 1995). Such self assembly requires high dynamin concentrations typically in the order of 500-1000 nM and is not observed at lower dynamin concentrations. Specifically, the effect of Bis-T-23 (5.4 μM) on 200 nM dynamin in the absence of template was tested, which is well below the concentration threshold for self-assembly. […] High power images confirmed that the electron dense structures are bona fide dynamin rings (FIG. 9B). […] The findings with basal dynamin are completely unexpected for a dynamin inhibitor and are indicative of the ring stabilizer activity.

Sequence of native brain dynamin I (A0ACI6NZN1 entry or part of it): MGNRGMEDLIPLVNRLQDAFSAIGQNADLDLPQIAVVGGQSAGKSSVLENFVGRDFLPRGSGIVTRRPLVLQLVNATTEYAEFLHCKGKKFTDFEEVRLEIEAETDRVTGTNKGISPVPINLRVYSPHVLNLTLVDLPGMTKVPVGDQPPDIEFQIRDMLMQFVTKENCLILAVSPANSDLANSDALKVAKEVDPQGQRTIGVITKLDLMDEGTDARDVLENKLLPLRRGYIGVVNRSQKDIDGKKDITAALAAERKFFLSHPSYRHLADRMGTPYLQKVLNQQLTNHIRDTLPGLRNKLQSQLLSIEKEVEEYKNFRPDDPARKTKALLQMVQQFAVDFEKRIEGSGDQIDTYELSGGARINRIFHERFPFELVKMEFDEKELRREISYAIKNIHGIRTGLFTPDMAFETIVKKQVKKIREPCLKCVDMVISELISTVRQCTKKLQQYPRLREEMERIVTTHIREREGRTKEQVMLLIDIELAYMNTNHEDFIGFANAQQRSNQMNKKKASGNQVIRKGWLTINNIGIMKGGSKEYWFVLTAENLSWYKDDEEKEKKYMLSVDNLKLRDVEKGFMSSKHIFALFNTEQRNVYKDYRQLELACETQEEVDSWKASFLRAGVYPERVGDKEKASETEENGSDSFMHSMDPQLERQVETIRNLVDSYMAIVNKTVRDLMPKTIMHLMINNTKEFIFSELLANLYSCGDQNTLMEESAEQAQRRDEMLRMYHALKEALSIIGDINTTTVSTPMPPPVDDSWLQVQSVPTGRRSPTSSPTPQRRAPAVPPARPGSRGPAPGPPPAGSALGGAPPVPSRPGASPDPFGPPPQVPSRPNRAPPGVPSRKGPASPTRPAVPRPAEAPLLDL

N#CC(=Cc1cc(O)c(O)c(O)c1)C(=O)NCCCNC(=O)C(C#N)=Cc1cc(O)c(O)c(O)c1 [Bis-T-23, 2-cyano-N-{3-[2-cyano-3-(3,4,5-trihydroxyphenyl)-acryloylamino]-propyl}-3-(3,4,5-trihydroxyphenyl)-acrylamide]
basal rate of GTP hydrolysis of dynamin [1]: increased the rate of basal dynamin GTP hydrolysis to a similar level to addition of Gsn-F-actin complexes
stress fibers in podocytes ([2]; FIG. 19): dramatic increase in well-defined stress fibers
number of focal adhesions (paxillin staining) ([2]; FIG. 19B): dramatic increase in the number of focal adhesions
inhibition of liposome-stimulated dynamin GTPase activity [3]: potently inhibits dynamin at all points
increase in bona fide dynamin rings [4]: 6 fold

Source: patent US8809386B2, “Use of dynamin ring stabilizers” (Children's Medical Research Institute, priority 2009, dated 2014)
